In patent publication US20040038875A1, “Alpha 7nicotinic receptor screening assays” (priority 2002, published 2004):

Experiments:
[1] = tested on: neurons of the substantia nigra; settings: cited from earlier work
[2] = tested on: hippocampal neurons; assay: Ca2+ flux into hippocampal neurons; format: cell-based
From the text: This is of particular interest in relation to Alzheimer's Disease since the hippocampus is the major site of degeneration neuropathology associated with that disease.

[3] = molecular target: T1, human alpha 7 nicotinic receptor (Homo sapiens, UniProt P36544); assay: ACh-induced currents / Ca2+ flux in Xenopus oocytes expressing human alpha 7 nicotinic receptors (two microelectrode voltage clamp, intracellular recordings); format: cell-based
T1 construct: expressed in transfected cells; host or cells: Xenopus oocytes injected with in vitro transcribed alpha 7 subunit mRNA

[4] = molecular target: T2, homomeric alpha 7 nicotinic receptors (Homo sapiens, UniProt P36544); settings: cited from earlier work
[5] = molecular target: T3, neuronal chick homomeric alpha 7 nicotinic receptors (Gallus gallus, UniProt P22770); settings: in the μM range, chick receptor in oocytes; cited from earlier work
T3 construct: host or cells: oocytes

[6] = molecular target: T2, homomeric alpha 7 nicotinic receptors; parameters: host or cells: oocytes; settings: in the μM range, human receptor in oocytes; cited from earlier work

T1 sequence (P36544 23-502): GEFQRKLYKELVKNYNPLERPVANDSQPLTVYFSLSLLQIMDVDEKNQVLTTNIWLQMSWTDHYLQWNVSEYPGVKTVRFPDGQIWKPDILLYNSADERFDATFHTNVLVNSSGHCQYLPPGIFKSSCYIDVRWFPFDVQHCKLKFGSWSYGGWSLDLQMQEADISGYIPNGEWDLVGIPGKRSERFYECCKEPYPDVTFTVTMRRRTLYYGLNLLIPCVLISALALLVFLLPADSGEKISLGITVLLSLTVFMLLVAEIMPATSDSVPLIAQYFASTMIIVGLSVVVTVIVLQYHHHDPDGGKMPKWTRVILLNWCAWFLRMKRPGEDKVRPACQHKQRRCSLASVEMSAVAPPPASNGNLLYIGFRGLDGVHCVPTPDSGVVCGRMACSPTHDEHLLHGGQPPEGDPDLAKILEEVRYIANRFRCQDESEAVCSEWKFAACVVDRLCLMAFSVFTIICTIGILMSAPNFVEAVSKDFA
T2 sequence (P36544 23-502): as above
T3 sequence (P22770 23-502 limits assumed): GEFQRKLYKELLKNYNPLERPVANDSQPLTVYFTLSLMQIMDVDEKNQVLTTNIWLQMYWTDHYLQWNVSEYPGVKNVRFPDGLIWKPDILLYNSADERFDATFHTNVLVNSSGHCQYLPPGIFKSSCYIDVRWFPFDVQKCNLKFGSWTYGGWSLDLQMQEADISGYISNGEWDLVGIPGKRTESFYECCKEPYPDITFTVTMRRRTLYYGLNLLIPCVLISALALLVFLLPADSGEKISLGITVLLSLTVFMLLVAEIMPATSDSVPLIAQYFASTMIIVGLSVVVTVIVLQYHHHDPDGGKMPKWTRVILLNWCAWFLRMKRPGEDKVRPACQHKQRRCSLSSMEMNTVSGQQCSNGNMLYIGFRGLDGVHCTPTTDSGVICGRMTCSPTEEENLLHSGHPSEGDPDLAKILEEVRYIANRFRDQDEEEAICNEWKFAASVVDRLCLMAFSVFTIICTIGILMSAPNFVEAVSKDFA

Compound: Aβ1-42: Aβ1-42 fragment of human APP associated with Alzheimer's Disease [reference compound]
- modulation of calcium influx [1]: not observed

Compound: AEFHRWSSYMVHWK [Synaptica Peptide]
- calcium potentials induced by NMDA or direct depolarisation ([1]; initial effect): initially enhances calcium potentials
- calcium entry ([1]; sustained application for a few minutes): reduction in calcium entry
- Ca2+ flux into hippocampal neurons [2]: enhance Ca^2+ flux into hippocampal neurons which eventually switches off calcium channels
- reversibility of effects [3]: reversible but recovery was slow
- effect on ACh-induced Ca2+ flux ([3]; 0.001 μM applied with ACh, no pre-incubation): increased Ca^2+ flux
- Ca2+ current, intracellular recordings ([3]; 10 μM applied without ACh): no Ca^2+ current was observed
- current, intracellular recordings ([3]; 10 μM followed after 30 seconds by 100 μM ACh): reduced current compared to that observed with ACh alone
- effect on ACh-evoked response at high dose ([3]; high dose, range 10^−12 to 5×10^−6): enhancement of ACh-evoked response observed with low doses of the peptide was reversed
- effect on ACh-mediated responses ([3]; peptide applied, after 2 minutes co-application of peptide and ACh): inhibition of ACh-mediated responses

Compound: COc1ccc(/C=C2\CCCN=C2c2cccnc2)c(OC)c1 [GTS-21, 2,4-dimethoxybenzylidene anabaseine]
- functional selectivity compared to α4β2 nicotinic receptors [4]: high functional selectivity

Compound: ivermectin
- acetyl choline-evoked currents [5]: strongly enhance
- acetyl choline-evoked currents [6]: strongly enhance
